Test results published in patent US9067881B2, “4-tolyl-ethynyl-octahydro-indole-1-ester derivatives” (NOVARTIS AG, priority 2011, dated 2015).

Key:
[1] = microsomes
[2] = microsomes; remark: listed apart in the source

(3aR,4S,7aR)-4-((S,R)-2-Amino-3-methyl-butyryloxy)-4-m-tolylethynyl-octahydro-indole-1-carboxylic acid methyl ester [Example 4]
CL (human) [1]: 630 µL/min/mg | CL (rat) [2]: 478 µL/min/mg
